target: T1, human CGT (Homo sapiens, UniProt Q16880); test: Assay 1: CGT Enzymatic Assay (RapidFire/MS/MS, 0.01% Tween 80); type: biochemical; conditions: Table 1, Compounds of Formula (I) and Formula (II); CGT enzymatic assay, C6-NBD-dihydro-galactosylceramide readout; read-out: IC50
T1 sequence (Q16880 21-541): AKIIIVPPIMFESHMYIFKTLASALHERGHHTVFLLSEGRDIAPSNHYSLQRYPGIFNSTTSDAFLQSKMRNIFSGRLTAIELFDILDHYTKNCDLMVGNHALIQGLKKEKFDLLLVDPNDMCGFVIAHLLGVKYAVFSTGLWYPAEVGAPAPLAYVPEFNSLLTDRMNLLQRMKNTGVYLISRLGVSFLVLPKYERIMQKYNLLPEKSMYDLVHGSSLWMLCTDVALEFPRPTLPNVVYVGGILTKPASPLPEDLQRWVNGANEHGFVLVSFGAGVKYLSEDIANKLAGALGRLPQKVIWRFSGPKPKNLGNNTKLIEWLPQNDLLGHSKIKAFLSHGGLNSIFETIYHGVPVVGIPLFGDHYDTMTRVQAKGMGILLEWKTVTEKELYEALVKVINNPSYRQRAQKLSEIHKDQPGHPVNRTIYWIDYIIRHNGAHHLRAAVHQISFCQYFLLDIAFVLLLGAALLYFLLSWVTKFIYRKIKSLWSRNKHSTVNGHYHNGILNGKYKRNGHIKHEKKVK

COCC1(C)N(c2ccc(Cl)cc2)C(=O)N(c2ccc(Cl)cc2)C1(O)c1cccc(OC(F)(F)F)c1 (mixture of isomers) [Compound 296, 1,3-bis(4-chlorophenyl)-4-hydroxy-5-(methoxymethyl)-5-methyl-4-(3-(trifluoromethoxy)phenyl)imidazolidin-2-one] and CC1(C(F)(F)F)N(c2ccc(Cl)cc2)C(=O)N(c2ccc(Cl)cc2)C1(O)c1cc(C#N)cc(C#N)c1 (racemic) [Example 331, 5-((5S)-1,3-bis(4-chlorophenyl)-4-hydroxy-5-methyl-2-oxo-5-(trifluoromethyl)imidazolidin-4-yl)isophthalonitrile and 5-((5R)-1,3-bis(4-chlorophenyl)-4-hydroxy-5-methyl-2-oxo-5-(trifluoromethyl)imidazolidin-4-yl)isophthalonitrile] cannot be ordered by IC50: under 1 µM for the first, under 1 µM for the second.

COc1ccc(N2C(=O)N(c3ccc(OC)cc3)C(O)(c3cccc(OC(F)(F)F)c3)C2C(C)C)cc1 (racemic) [Example 329, (5S)-4-hydroxy-5-isopropyl-1,3-bis(4-methoxyphenyl)-4-(3-(trifluoromethoxy)phenyl)imidazolidin-2-one and (5R)-4-hydroxy-5-isopropyl-1,3-bis(4-methoxyphenyl)-4-(3-(trifluoromethoxy)phenyl)imidazolidin-2-one] was tested, and the IC50 was under 1 µM.

same assay, conditions: Table 1, Compounds of Formula (I) and Formula (II); CGT enzymatic assay; read-out: IC50

C[C@@H]1N(c2ccc(Cl)cc2)C(=O)N(c2ccc(Cl)cc2)C1(O)c1cccc(Cl)c1 (single isomer, unassigned) [Compound 62-1] and C[C@H]1N(c2ccc(Cl)cc2)C(=O)N(c2ccc(Cl)cc2)C1(O)c1cccc(Cl)c1 (single isomer, unassigned) [Compound 62-2] cannot be ordered by IC50: under 1 µM for the first, under 1 µM for the second.

C[C@@H]1N(c2ccc(Cl)cc2)C(=O)N(c2ccc(Cl)cc2)C1(O)c1cccc(C(F)(F)F)c1 (single isomer, unassigned) [Compound 77-1] and CCC[C@@H]1N(c2ccc(Cl)cc2)C(=O)N(c2ccc(Cl)cc2)C1(O)c1cccc(C(F)(F)F)c1 (single isomer, unassigned) [Compound 87-1] cannot be ordered by IC50: under 1 µM for the first, under 1 µM for the second.

COC(=O)C1(O)[C@H](C)N(c2ccc(Br)cc2)C(=O)N1c1ccc(Br)cc1 (single isomer, unassigned) [Compound 84-1] and COC(=O)C1(O)[C@@H](C)N(c2ccc(Br)cc2)C(=O)N1c1ccc(Br)cc1 (single isomer, unassigned) [Compound 84-2] cannot be ordered by IC50: over 50 µM for the first, over 50 µM for the second.

C[C@@H]1N(c2ccc(Cl)cc2)C(=O)N(c2ccc(Cl)cc2)C1(O)c1cccc(C#N)c1 (single isomer, unassigned) [Compound 99-1] and C[C@H]1N(c2ccc(Cl)cc2)C(=O)N(c2ccc(Cl)cc2)C1(O)c1cccc(C#N)c1 (single isomer, unassigned) [Compound 99-2] cannot be ordered by IC50: under 1 µM for the first, under 1 µM for the second.

CCC[C@@H]1N(c2ccc(Cl)cc2)C(=O)N(c2ccc(Cl)cc2)C1(O)c1cccc(C#N)c1 (single isomer, unassigned) [Compound 101-1] and CC[C@@H]1N(c2ccc(Cl)cc2)C(=O)N(c2ccc(Cl)cc2)C1(O)c1cccc(C#N)c1 (single isomer, unassigned) [Compound 106-1] cannot be ordered by IC50: under 1 µM for the first, under 1 µM for the second.

Compared with CCc1ccc(N2C(=O)N(c3ccc(CC)cc3)C(O)(c3cccc(C#N)c3)[C@@H]2C)cc1 (single isomer, unassigned) [Compound 104-1], CCc1ccc(N2C(=O)N(c3ccc(CC)cc3)C(O)(c3cccc(C#N)c3)[C@H]2C)cc1 (single isomer, unassigned) [Compound 104-2] is lower in IC50: 10 to 50 µM for the first, under 1 µM for the second. The second is the more potent here.

Compared with Cc1ccc(N2C(=O)N(c3ccc(C)cc3)C(O)(c3cccc(C#N)c3)[C@@H]2C)cc1 (single isomer, unassigned) [Compound 105-1], Cc1ccc(N2C(=O)N(c3ccc(C)cc3)C(O)(c3cccc(C#N)c3)[C@H]2C)cc1 (single isomer, unassigned) [Compound 105-2] is lower in IC50: 1 to 10 µM for the first, under 1 µM for the second. The second is the more potent here.

Compound CC[C@H]1N(c2ccc(Cl)cc2)C(=O)N(c2ccc(Cl)cc2)C1(O)c1cccc(C#N)c1 (single isomer, unassigned) [Compound 106-2] has an IC50 of under 1 µM.
